In US11000511B2, “Chemical compounds as antibiotics” (priority 2017, dated 2021):

Experiments:
[1] = molecular target: T1, LasB elastase activity in dialysed supernatant from P. aeruginosa strain PA01 (Pseudomonas aeruginosa, UniProt P14756); assay: Elastin Congo Red assay to determine % inhibition (Assay 1); assay type: biochemical; settings: read-out: Elastin hydrolysis % inhibition @ 50/25 μM inhibitor concentration Assay 1
T1 construct: uses as source of enzyme dialysed supernatant from P. aeruginosa; endogenous in cells; host or cells: P. aeruginosa strain PA01 culture supernatant, filtered and dialysed
How it was run: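 Enzyme source: PA01 culture supernatant (19 h growth), filtered and dialysed into 50 mM Tris pH 7.4, 2.5 mM CaCl2. Mixed 1:1 with Elastin Congo Red (20 mg/mL) plus 0.01% Triton X-100 and compound (routinely 50 and 25 μM), 24 h at 37 °C shaking. Dye release at OD520 gives % inhibition versus DMSO.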

[2] = molecular target: T2, purified LasB protein from P. aeruginosa (Pseudomonas aeruginosa, UniProt P14756); assay: Fluorometric assay to determine Ki (Assay 1); assay type: biochemical; settings: Ki (μM) Assay 1, purified LasB, substrate Abz-Ala-Gly-Leu-Ala-p-Nitro-Benzyl-Amide 250 μM, Ki calculated from IC50; inhibitor 0.006 to 200 μM
T2 construct: purchased Merck or Charles River Laboratories
How it was run: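 Purified LasB (10 to 140 ng/ml) with 250 μM Abz-Ala-Gly-Leu-Ala-p-nitrobenzylamide in 50 mM Tris-HCl pH 7.4, 2.5 mM CaCl2, 0.01% Triton X100; hydrolysis read by fluorescence (Ex 340/Em 415 nm) over 30 min at 37° C. Inhibitor 2-fold series, 0.006–200 μM (Assay 1) or 0.0016–200 μM (Assay 2); IC50 converted to Ki via Ki=IC50/(1+[S]/Km), Km=214 μM.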

T2 sequence (P14756 198-498): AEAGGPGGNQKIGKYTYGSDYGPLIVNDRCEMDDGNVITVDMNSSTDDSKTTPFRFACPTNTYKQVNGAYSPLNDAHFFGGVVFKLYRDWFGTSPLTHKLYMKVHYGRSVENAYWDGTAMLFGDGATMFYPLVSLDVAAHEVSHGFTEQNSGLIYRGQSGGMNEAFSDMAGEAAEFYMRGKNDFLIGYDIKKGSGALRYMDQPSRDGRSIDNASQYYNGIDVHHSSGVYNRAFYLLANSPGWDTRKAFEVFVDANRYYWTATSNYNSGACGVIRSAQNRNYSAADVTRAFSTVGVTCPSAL
T1 sequence (P14756 198-498): as above

Compound	inhibition at 50 µM [1] [%]	Ki [2] [µM]
CN1CCC(OC(=O)[C@H](Cc2c[nH]c3ccccc23)NC(=O)C2(CC(=O)O)Cc3ccccc3C2)CC1 [Example 45, 2-(2-{[(2S)-3-(1H-indol-3-yl)-1-[(1-methylpiperidin-4-yl)oxy]-1-oxopropan-2-yl]carbamoyl}-2,3-dihydro-1H-inden-2-yl)acetic acid]	> 60	< 0.3
N[C@@H]1CCN(c2ccc3nc(CNC(=O)C4(CC(=O)O)Cc5ccccc5C4)sc3c2)C1 [Example 102, 2-[2-[[6-[(3R)-3-aminopyrrolidin-1-yl]-1,3-benzothiazol-2-yl]methylcarbamoyl]indan-2-yl]acetic acid]	> 60	< 0.3
O=C(O)CC1(C(=O)NCc2nc3cc(Cl)ccc3[nH]2)Cc2ccccc2C1 [Example 1, 2-(2-{[(5-Chloro-1H-1,3-benzodiazol-2-yl)methyl]carbamoyl}-2,3-dihydro-1H-inden-2-yl)acetic acid]	30 to 60	0.3 to 2
Cc1cccc2sc(CNC(=O)C3(CC(=O)O)Cc4ccccc4C3)nc12 [Example 65, 2-(2-(((4-methylbenzo[d]thiazol-2-yl)methyl)carbamoyl)-2,3-dihydro-1H-inden-2-yl)acetic acid]	> 60	< 0.3
COc1cccc2sc(CNC(=O)C3(CC(=O)O)Cc4ccccc4C3)nc12 [Example 62, 2-(2-(((4-methoxybenzo[d]thiazol-2-yl)methyl)carbamoyl)-2,3-dihydro-1H-inden-2-yl)acetic acid]	> 60	< 0.3
CN(C)CCc1ccc2nc(CNC(=O)C3(CC(=O)O)Cc4ccccc4C3)sc2c1 [Example 95, 2-[2-[[6-[2-(dimethylamino)ethyl]-1,3-benzothiazol-2-yl]methylcarbamoyl]indan-2-yl]acetic acid]	30 to 60	0.3 to 2
CN1CCN(c2ccc3sc(CNC(=O)C4(CC(=O)O)Cc5ccccc5C4)nc3c2)CC1 [Example 106, 2-[2-[[5-(4-methylpiperazin-1-yl)-1,3-benzothiazol-2-yl]methylcarbamoyl]indan-2-yl]acetic acid]	> 60	< 0.3
C[N+]1(C)CCC(OC(=O)[C@H](Cc2c[nH]c3ccccc23)NC(=O)C2(CC(=O)O)Cc3ccccc3C2)CC1 [Example 116, (S)-2-(2-((1-((1,1-dimethylpiperidin-1-ium-4-yl)oxy)-3-(1H-indol-3-yl)-1-oxopropan-2-yl)carbamoyl)-2,3-dihydro-1H-inden-2-yl)acetate]	> 60	0.3 to 2
Cc1nnc([C@H](Cc2c[nH]c3ccccc23)NC(=O)C2(CC(=O)O)Cc3ccccc3C2)o1 [Example 117, (S)-2-(2-((2-(1H-indol-3-yl)-1-(5-methyl-1,3,4-oxadiazol-2-yl)ethyl)carbamoyl)-2,3-dihydro-1H-inden-2-yl)acetic acid]	> 60	0.3 to 2
CN(C)C[C@H]1C[C@H](c2ccc3nc(CNC(=O)C4(CC(=O)O)Cc5ccccc5C4)sc3c2)C1 [Example 91, 2-(2-(((6-((1 r,3r)-3-((dimethylamino)methyl)cyclobutyl)benzo[d]thiazol-2-yl)methyl)carbamoyl)-2,3-dihydro-1H-inden-2-yl)acetic acid]	> 60	< 0.3
O=C(O)CC1(C(=O)NCc2cc3cc(Br)ccc3o2)Cc2ccccc2C1 [Example 18, 2-[2-[(5-bromobenzofuran-2-yl)methylcarbamoyl]indan-2-yl]acetic acid]	> 60	< 0.3
O=C(O)CC1(C(=O)NCC2COc3ccccc3O2)Cc2ccccc2C1 (stereo not drawn) [Example 17, 2-[2-(2,3-dihydro-1,4-benzodioxin-3-ylmethylcarbamoyl)indan-2-yl]acetic acid]	30 to 60	0.3 to 2
NCCNc1ccc2sc(CNC(=O)C3(CC(=O)O)Cc4ccccc4C3)nc2c1 [Example 72, 2-[2-[[5-(2-aminoethylamino)-1,3-benzothiazol-2-yl]methylcarbamoyl]indan-2-yl]acetic acid]	> 60	0.3 to 2
O=C(O)CC1(C(=O)NCc2nc3cc(Cl)ccc3s2)Cc2ccccc2C1 [Example 25, 2-[2-[(5-chloro-1,3-benzothiazol-2-yl)methylcarbamoyl]indan-2-yl]acetic acid]	> 60	< 0.3
O=C(O)CC1(C(=O)N[C@H](CO)Cc2c[nH]c3ccccc23)Cc2ccccc2C1 [Example 33, (2-{[(2S)-1-hydroxy-3-(1H-indol-3-yl)propan-2-yl]carbamoyl}-1,3-dihydroinden-2-yl)acetic acid]	30 to 60	0.3 to 2
O=C(O)CC1(C(=O)NCCc2cc3ccccc3o2)Cc2ccccc2C1 [Example 19, 2-[2-[2-(benzofuran-2-yl)ethylcarbamoyl]indan-2-yl]acetic acid]	15 to 30	2 to 10
C[N+](C)(C)CCOc1ccc2nc(CNC(=O)C3(CC(=O)[O-])Cc4ccccc4C3)sc2c1 [Example 111, 2-[2-[[6-[2-(trimethylammonio)ethoxy]-1,3-benzothiazol-2-yl]methylcarbamoyl]indan-2-yl]acetate]	30 to 60	0.3 to 2
O=C(O)CC1(C(=O)NCc2nc3c(s2)CNCC3)Cc2ccccc2C1 [Example 44, 2-[2-(4,5,6,7-tetrahydrothiazolo[5,4-c]pyridin-2-ylmethylcarbamoyl)indan-2-yl]acetic acid]	15 to 30	2 to 10
NC(=O)[C@H](Cc1ccc(O)cc1)NC(=O)C1(CC(=O)O)Cc2ccccc2C1 [Example 48, (S)-2-(2-((1-amino-3-(4-hydroxyphenyl)-1-oxopropan-2-yl)carbamoyl)-2,3-dihydro-1H-inden-2-yl)acetic acid]	30 to 60	2 to 10
CCOc1cccc2sc(CNC(=O)C3(CC(=O)O)Cc4ccccc4C3)nc12 [Example 64, 2-(2-(((4-ethoxybenzo[d]thiazol-2-yl)methyl)carbamoyl)-2,3-dihydro-1H-inden-2-yl)acetic acid]	> 60	0.3 to 2
NC(=O)[C@H](Cc1c[nH]c2ccccc12)NC(=O)C1(CC(=O)O)Cc2ccccc2C1 [Example 52, (S)-2-(2-((1-amino-3-(1H-indol-3-yl)-1-oxopropan-2-yl)carbamoyl)-2,3-dihydro-1H-inden-2-yl)acetic acid]	> 60	< 0.3
C[N+]1(C)CCN(c2ccc3nc(CNC(=O)C4(CC(=O)O)Cc5ccccc5C4)sc3c2)CC1 [Example 43, 2-[2-[[6-(4,4-dimethylpiperazin-4-ium-1-yl)-1,3-benzothiazol-2-yl]methylcarbamoyl]indan-2-yl]acetic acid]	30 to 60	0.3 to 2
Cc1ccc2oc(CNC(=O)C3(CC(=O)O)Cc4ccccc4C3)cc2c1 [Example 6, 2-(2-{[(5-methyl-1-benzofuran-2-yl)methyl]carbamoyl}-2,3-dihydro-1H-inden-2-yl)acetic acid]	> 60	< 0.3
NCCNc1ccc2nc(CNC(=O)C3(CC(=O)O)Cc4ccccc4C3)sc2c1 [Example 69, 2-[2-[[6-(2-aminoethylamino)-1,3-benzothiazol-2-yl]methylcarbamoyl]indan-2-yl]acetic acid]	> 60	0.3 to 2
